Consider six molecules from US11274082B2, “Tead inhibitors and uses thereof” (Ikena Oncology, Inc., priority 2019, dated 2022).

The structures appear in SMILES notation. Where two headings read alike, the source gives them in different places. Bounds are passed on as bounds.

One series relates to H226. As to the kind of experiment: Anti-proliferation assay in H226 cells. In kind it is cell-based. The settings on record: Homo sapiens.
The next series deals with TEAD. As to the kind of experiment: TEAD reporter assay (Hippo Pathway TEAD Reporter - MCF7 cell line, luciferase). Conditions: Homo sapiens. In kind it is cell-based.
The test system of another series is H28. As to the kind of experiment: Anti-proliferation assay in H28 cells. Type of series: cell-based. The settings on record: Homo sapiens, NCI-H28. As for the experimental part: Certain compounds were tested in TEAD reporter assay, and in H226 and H28. A: EC50<0.1 uM; B: 0.1 uM≤EC50≤0.5 uM; C: EC50>0.5 uM.
Individual cell lines were grown in medium according to supplier instructions and seeded into 96-well plates at a density that ensured logarithmic growth over 72 hours. TEAD inhibitor compounds were administered to cells at a top concentration of 10 μm and subsequently a 10 point 3-fold serial dilution was conducted. After 72 hours, proliferation was quantified using Cell TITERGLO™ (Promega, Inc.) and compared to vehicle control. IC50 and EC50 values were generated using XLFit curve fitting software.

Series [1] can be described thus: Mouse pharmacokinetics study. Type of series: in vivo. Conditions: BALB/c mice, 10 mg/kg by oral gavage in 5% DMS/95% PEG400, plasma. As for the experimental part: Formulated compounds were administered intravenously or orally via gavage to BALB/c mice. Typically, at 0.167, 0.5, 1, 2, 4, 6, 12, and 24 hours post-dose, blood was collected and processed to plasma by centrifugation and stored at −80° C. until analysis. Internal standard was added to each sample prior to protein precipitation with acetonitrile or TCA. The precipitates were filtered through a filter plate and the samples were analyzed by LC/MS/MS. A standard curve was prepared in plasma from typically from 1.0 ng/mL to 3000 ng/mL and processed in the same manner as the samples. Sample analysis was typically performed on a suitable LC/MS/MS system fitted with an analytical UPLC column and compounds eluted from the analytical column with a gradient from 30-95% 0.1% formic acid (v/v) in ACN: 0.1% formic acid (v/v) in water. Mass spectrometric detection of test compound and the internal standard was performed by MRM in positive mode. The pharmacokinetics of each compound were analyzed by Phoenix WinNonlin software (Pharsight, St. Louis, Mo.) via noncompartmental analysis.

[2] abbreviates: NCI-H226, H226 cells, read-out: H226 EC50.
Where [3] appears, read: TEAD Reporter - MCF7 cells, read-out: TEAD Reporter Assay EC50.

For the molecule `CNS(=O)(=O)c1ccc(NCc2ccccc2)c(-c2nnn(C)n2)c1` [I-16, 4-(benzylamino)-N-methyl-3-(2-methyltetrazol-5-yl)benzenesulfonamide], the half-maximal effective concentration (EC50) in the series with H226 (setting [2]) is above 0.5 µM; in the series on TEAD (setting [3]) it was 0.1 to 0.5 µM; in the series on H28, above 500 nM.
Taken in the same sequence, the figures for `Cn1nnc(-c2cc(B(O)O)ccc2Nc2cccc(C(F)(F)F)c2)n1` [I-17, [3-(2-methyltetrazol-5-yl)-4-[3-(trifluoromethyl)anilino]phenyl]boronic acid] were above 0.5 µM, above 0.5 µM and above 500 nM.
Regarding `CNS(=O)(=O)c1ccc(NCc2ccccc2)c(-c2cn(C)cn2)c1` [I-27, 4-(Benzylamino)-N-methyl-3-(1-methylimidazol-4-yl)benzenesulfonamide], the half-maximal effective concentration (EC50) was below 0.1 µM in the series on H226 (setting [2]), below 0.1 µM in the series on TEAD (setting [3]) and above 500 nM in the series with H28. The molecule also returned an AUC(0-t) in series [1] of 2250 ng·h/mL. In series [1], the Cmax worked out at 1040 ng/mL.
As to `CNS(=O)(=O)c1cnc(Nc2cccc(C(F)(F)F)c2)c(-c2cn(C)cn2)c1` [I-36, N-Methyl-5-(1-methylimidazol-4-yl)-6-[3-(trifluoromethyl)anilino]pyridine-3-sulfonamide], the EC50 with H226 (NCI-H226, read-out: H226 EC50 (uM)) was below 0.1 µM. Also, the EC50 in the series with TEAD (MCF7, read-out: TEAD Reporter Assay EC50 (uM)) was below 0.1 µM. Further, in series [1], the area under the curve AUC(0-t) is 595 ng·h/mL and the peak concentration (Cmax) was determined as 213 ng/mL.
For `CCNS(=O)(=O)c1ccc(Nc2cc(C(F)(F)F)ccn2)c(-c2cn(C)cn2)c1` [I-37, N-Ethyl-3-(1-methylimidazol-4-yl)-4-[[4-(trifluoromethyl)-2-pyridyl]amino]benzenesulfonamide], the 50% effective concentration (EC50) with H226 (setting [2]) and in the series on TEAD (setting [3]) was below 0.1 µM throughout. Also, in series [1], the area under the curve AUC(0-t) is 521 ng·h/mL. For the same molecule, the Cmax in series [1] came out at 351 ng/mL.
For `CNS(=O)(=O)c1ccc(Nc2ccc(C(F)(F)F)cn2)c(-c2cn(C)cn2)c1` [I-38, N-Methyl-3-(1-methylimidazol-4-yl)-4-[[5-(trifluoromethyl)-2-pyridyl]amino]benzenesulfonamide], the EC50 in the series on H226 (setting [2]) was below 0.1 µM. Further, the EC50 in the series on TEAD (setting [3]) is below 0.1 µM. In series [1], the area under the curve AUC(0-t) was found to be 25900 ng·h/mL and the peak level (Cmax) was 1620 ng/mL.
